The source of these data is PubChem BioAssay (NCI).

Among the test systems are COLO 205 colon; UACC-62 melanoma; TK-10 renal; HCC-2998 colon; EKVX NSCLC; NCI/ADR-RES ovarian; KM12 colon; NCI-H226 lung; CAKI-1 renal.
What all share (assay): growth of human tumour cells (NCI), 48 h

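Values below derive from 48-hour exposures of cells grown in 96-well plates, with endpoints linearly interpolated between the two concentrations bracketing the appropriate inhibition level. Abbreviation: GI50, concentration required for 50% inhibition of growth. TGI denotes the concentration required for complete inhibition of growth.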

As for `Cc1cccc(NC(=O)CCc2ccc(N3C(N)=NC(N)=NC3(C)C)cc2)c1`, the GI50 in the assay with COLO 205 colon was 7.8 µM; in the assay with UACC-62 melanoma, 2.37 µM; in the assay with TK-10 renal it was 18.2 µM; with HCC-2998 colon it was 3.34 µM; with NCI/ADR-RES ovarian, > 100 µM; in the assay with KM12 colon it was 1.24 µM. For the same compound, the figures for the GI50 in the assay on NCI-H226 lung and in the assay on CAKI-1 renal were > 64.7 µM and 97.3 µM, respectively. In addition, the TGI in the assay on COLO 205 colon, with UACC-62 melanoma, in the assay on TK-10 renal, in the assay on HCC-2998 colon, with EKVX NSCLC and in the assay with NCI/ADR-RES ovarian was > 100 µM in each case. In addition, the TGI in the assay with KM12 colon, with NCI-H226 lung and in the assay on CAKI-1 renal was > 100 µM in each case.

Regarding `CCCCON(OC(=O)c1ccccc1)C(=O)c1ccccc1`, the GI50 in the assay on COLO 205 colon, in the assay on UACC-62 melanoma, in the assay with TK-10 renal, with HCC-2998 colon, in the assay with EKVX NSCLC and in the assay with NCI/ADR-RES ovarian was > 100 µM in each case. In addition, the GI50 in the assay with KM12 colon, with NCI-H226 lung and with CAKI-1 renal was > 100 µM each time. Moreover, the TGI in the assay on COLO 205 colon, in the assay on UACC-62 melanoma, in the assay with TK-10 renal, in the assay on HCC-2998 colon, in the assay with EKVX NSCLC and in the assay with NCI/ADR-RES ovarian was > 100 µM in each case. In addition, the TGI with KM12 colon, in the assay on NCI-H226 lung and with CAKI-1 renal was > 100 µM in each case.

As for `CC(=O)NCCc1c2c(c3nccc4c3c1Nc1ccccc1-4)OCS2`, the GI50 was 2.38 µM in the assay with COLO 205 colon; 5.5 µM with UACC-62 melanoma; 5.56 µM in the assay with TK-10 renal; 45.8 µM in the assay on HCC-2998 colon; 2.05 µM in the assay on EKVX NSCLC; 4.83 µM in the assay on NCI/ADR-RES ovarian. For the same compound, the GI50 was 2.39 µM in the assay with KM12 colon, 11.6 µM in the assay with NCI-H226 lung and 0.249 µM in the assay with CAKI-1 renal. The TGI in the assay with COLO 205 colon is 15.6 µM; in the assay on UACC-62 melanoma, 19.3 µM; with TK-10 renal it was 18.9 µM; with HCC-2998 colon it was > 100 µM; in the assay with EKVX NSCLC, 16.1 µM; in the assay with NCI/ADR-RES ovarian, > 38.2 µM. Further, the TGI in the assay on KM12 colon is 10.8 µM; in the assay with NCI-H226 lung it was 26.5 µM; with CAKI-1 renal, 8.59 µM.

On to `Cn1cc(-c2ccc3c(Nc4cccc(NC(=O)Nc5cccc(F)c5)c4)ncnc3c2)cn1`, for which the GI50 with COLO 205 colon was 0.0503 µM; with UACC-62 melanoma, 3.21 µM; in the assay with TK-10 renal, 2.72 µM; in the assay on HCC-2998 colon, 4.81 µM; in the assay on EKVX NSCLC, 6.22 µM; in the assay on NCI/ADR-RES ovarian, 10.8 µM. For the same compound, the GI50 with KM12 colon is 2.52 µM; with NCI-H226 lung, 12.1 µM; in the assay with CAKI-1 renal, 0.559 µM. The TGI is 13.4 µM with COLO 205 colon; 15 µM in the assay on UACC-62 melanoma; 10.2 µM with TK-10 renal; 16.2 µM in the assay with HCC-2998 colon; 24.3 µM in the assay with EKVX NSCLC; > 100 µM in the assay on NCI/ADR-RES ovarian. In addition, the TGI in the assay on KM12 colon was found to be 10.8 µM; in the assay on NCI-H226 lung it was 35.9 µM; with CAKI-1 renal, 14.9 µM.

As to `COc1ccc2[nH]c(=O)c3c4ccccc4cn3c2c1`, the GI50 in the assay with COLO 205 colon was 0.373 µM; in the assay with UACC-62 melanoma, 0.345 µM; in the assay with TK-10 renal, 1.28 µM; in the assay on HCC-2998 colon it was 0.332 µM; in the assay on EKVX NSCLC it was 0.878 µM; in the assay on NCI/ADR-RES ovarian, 0.308 µM. In addition, the GI50 was 0.323 µM with KM12 colon, 3.47 µM in the assay with NCI-H226 lung and 0.169 µM with CAKI-1 renal. The TGI came out at 1.36 µM with COLO 205 colon; 1.4 µM in the assay on UACC-62 melanoma; 5.02 µM with TK-10 renal; 0.807 µM in the assay with HCC-2998 colon; 12.4 µM in the assay with EKVX NSCLC; 1.29 µM in the assay on NCI/ADR-RES ovarian. In addition, the TGI in the assay with KM12 colon was determined as 1.65 µM; with NCI-H226 lung it was 18 µM; in the assay on CAKI-1 renal, 0.839 µM.

Take `CC[C@]12CCCN3CCc4c(n(c5ccccc45)C(=O)C1)[C@@H]32`: the TGI is > 34 µM in the assay on COLO 205 colon; > 100 µM in the assay on UACC-62 melanoma; > 90 µM with TK-10 renal; 19.4 µM in the assay on HCC-2998 colon; > 100 µM in the assay with EKVX NSCLC; > 34.5 µM in the assay with NCI/ADR-RES ovarian. The TGI in the assay with KM12 colon, in the assay on NCI-H226 lung and in the assay on CAKI-1 renal was > 100 µM each time.

For the compound `C/C(=N\NC(=O)c1sc(=S)n(C)c1N)c1cc2ccccc2o1`, the GI50 in the assay on COLO 205 colon is 17.1 µM; with UACC-62 melanoma, 18.5 µM; with TK-10 renal, 15.3 µM; in the assay on HCC-2998 colon, 11.8 µM; in the assay on EKVX NSCLC, 11.9 µM; with NCI/ADR-RES ovarian, 11 µM. Besides, the results for the GI50 in the assay on KM12 colon, in the assay on NCI-H226 lung and in the assay on CAKI-1 renal were 9.12 µM, 18.7 µM and 37.6 µM, respectively. In addition, the TGI with COLO 205 colon stood at 50.6 µM; in the assay with UACC-62 melanoma it was 61.8 µM; in the assay on TK-10 renal, 32.7 µM; with HCC-2998 colon it was 27 µM; in the assay on EKVX NSCLC, 29.3 µM; in the assay on NCI/ADR-RES ovarian, 26 µM. Besides, the TGI is 25.8 µM in the assay on KM12 colon, 40.4 µM in the assay with NCI-H226 lung and > 100 µM in the assay with CAKI-1 renal.

As for `CCCCCCCCCCCCNC(C)=O`, the TGI came to 31.6 µM with COLO 205 colon; 30.2 µM in the assay on UACC-62 melanoma; 31.6 µM in the assay with TK-10 renal; 37.5 µM in the assay with HCC-2998 colon; 25.6 µM with EKVX NSCLC; 33.3 µM in the assay on NCI/ADR-RES ovarian. The TGI in the assay with KM12 colon worked out at 35.7 µM; in the assay with NCI-H226 lung, 35.9 µM; with CAKI-1 renal, 39.3 µM.

Consider `O=C[C@@H](CO)O[C@H](C=O)c1c[nH]c(=O)[nH]c1=O`, for which the TGI stood at 1210 µM in the assay with COLO 205 colon; 219 µM in the assay on UACC-62 melanoma; 355 µM in the assay on TK-10 renal; 338 µM in the assay with HCC-2998 colon; 329 µM in the assay on EKVX NSCLC; 536 µM with NCI/ADR-RES ovarian. Moreover, the TGI with KM12 colon came out at 362 µM; with NCI-H226 lung it was 552 µM; with CAKI-1 renal, 250 µM.

In the case of `COc1ccc(C(=O)c2cc(OC)c(OC)c(OC)c2)cc1`, the TGI with COLO 205 colon is 3.69 µM; in the assay with UACC-62 melanoma, > 9.77 µM; in the assay on TK-10 renal it was > 100 µM; with HCC-2998 colon, > 14 µM; with EKVX NSCLC it was > 100 µM; with NCI/ADR-RES ovarian, > 100 µM. Moreover, the values for the TGI in the assay on KM12 colon, with NCI-H226 lung and with CAKI-1 renal were > 33.1 µM, 37.9 µM and > 88.1 µM, respectively.
